Assay results from patent US12172967B1, “3-(4,5-bis(4-bromophenyl)-2-(4-chlorophenyl)-1H-imidazol-1-yl)propanoic acid as an antimicrobial compound” (KING FAISAL UNIVERSITY, priority 2023, dated 2024).

Columns and labels:
Assay type in all cases: cell-based
[1] = system: Aspergillus flavus; experiment: agar plate disc-diffusion, antifungal, Aspergillus flavus; conditions: Sabouraud's dextrose agar, 37° C., 72 h
Experimental: (§1) The agar plate disc-diffusion method was applied. […] The discs were then placed onto the surface of agar plates (nutrient agar for bacteria and Sabouraud's dextrose agar for fungi) seeded with the test organism. Each plate contained 15 mL of the agar medium, previously seeded with 0.2 mL of the broth culture of each organism pregrown for 18 h. The plates were incubated at 37° C. for 48 h, and 72 h for fungi. The inhibition zones was measured in mm. Discs impregnated with DMSO were used as a control, and its inhibition zone was subtracted from the tested compound actual inhibition zone.

[2] = system: Staphylococcus aureus; experiment: agar plate disc-diffusion, antibacterial, Staphylococcus aureus; conditions: nutrient agar, 37° C., 48 h
Experimental: as §1

[3] = system: Chrysosporium keratinophilum; experiment: agar plate disc-diffusion, antifungal, Chrysosporium keratinophilum; conditions: Sabouraud's dextrose agar, 37° C., 72 h
Experimental: as §1

[4] = system: Pseudomonas aeruginosa; experiment: agar plate disc-diffusion, antibacterial, Pseudomonas aeruginosa; conditions: nutrient agar, 37° C., 48 h
Experimental: as §1

[5] = system: Bacillus cereus; experiment: agar plate disc-diffusion, antibacterial, Bacillus cereus; conditions: nutrient agar, 37° C., 48 h
Experimental: as §1

[6] = system: Escherichia coli; experiment: agar plate disc-diffusion, antibacterial, Escherichia coli; conditions: nutrient agar, 37° C., 48 h
Experimental: as §1

[7] = A = concentration of comp. = 10,000 μL
[8] = B = concentration of comp. = 30,000 μL
[9] = C = concentration of comp. = 50,000 μL

O=C(O)CCn1c(-c2ccc(Cl)cc2)nc(-c2ccc(Br)cc2)c1-c1ccc(Br)cc1 [V, 3-(4,5-bis(4-bromophenyl)-2-(4-chlorophenyl)-1H-imidazol-1-yl)propanoic acid]
inhibition zone, Aspergillus flavus, A [1, 7]: 23 mm
inhibition zone, Aspergillus flavus, B [1, 8]: 27 mm
inhibition zone, Aspergillus flavus, C [1, 9]: 36 mm
inhibition zone, Staphylococcus aureus, A [2, 7]: 17 mm
inhibition zone, Staphylococcus aureus, B [2, 8]: 19 mm
inhibition zone, Staphylococcus aureus, C [2, 9]: 26 mm
inhibition zone, Chrysosporium keratinophilum, A [3, 7]: 24 mm
inhibition zone, Chrysosporium keratinophilum, B [3, 8]: 26 mm
inhibition zone, Chrysosporium keratinophilum, C [3, 9]: 47 mm
inhibition zone, Pseudomonas aeruginosa, A [4, 7]: 25 mm
inhibition zone, Pseudomonas aeruginosa, B [4, 8]: 27 mm
inhibition zone, Pseudomonas aeruginosa, C [4, 9]: 41 mm
inhibition zone, Bacillus Cereus, A [5, 7]: 19 mm
inhibition zone, Bacillus Cereus, B [5, 8]: 21 mm
inhibition zone, Bacillus Cereus, C [5, 9]: 29 mm
inhibition zone, Escherichia coli, A [6, 7]: 28 mm
inhibition zone, Escherichia coli, B [6, 8]: 37 mm
inhibition zone, Escherichia coli, C [6, 9]: 51 mm
